Source: PubChem BioAssay (NCI)
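96-well plates; 48 h exposure; 5 concentrations. Endpoints by linear interpolation between flanking doses. Not reached: highest tested concentration assigned. TGI: total growth inhibition.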

Key:
Assay in all cases: NCI tumour cell line growth inhibition, 48 h
[1] = system: KM20L2 colon
[2] = system: DLD-1 colon
[3] = system: LXFL 529 NSCLC
[4] = system: XF 498 CNS
[5] = system: DMS 114 small cell lung
[6] = system: RXF-631 renal
[7] = system: M19-MEL melanoma
[8] = system: SNB-78 CNS
[9] = system: HOP-18 NSCLC
[10] = system: P388 leukemia
[11] = system: SN12K1 renal
[12] = system: P388/ADR leukemia

| Compound | TGI [1] | TGI [2] | TGI [3] | TGI [4] | TGI [5] | TGI [6] | TGI [7] | TGI [8] | TGI [9] | TGI [10] | TGI [11] | TGI [12] |
| --- | --- | --- | --- | --- | --- | --- | --- | --- | --- | --- | --- | --- |
| CC1SC2=NC3=C(c4ccccc4C3=O)C(c3ccccc3Cl)N2C1=O (stereo not drawn) | > 100 µM | > 100 µM | > 100 µM | > 100 µM | > 100 µM | > 100 µM | > 100 µM | – | – | – | – | – |
| CN/N=C(\C(=O)Nc1ccc(C(F)(F)F)cc1[N+](=O)[O-])C(c1cnc2ccc([N+](=O)[O-])cc2n1)[N+](=O)[O-] (stereo not drawn) | – | > 100 µM | > 100 µM | – | > 100 µM | – | > 100 µM | > 100 µM | – | – | – | – |
| CCCCCCCC(=O)OC[C@H](C[As](=O)(O)O)OC(=O)CCCCCCC | 30.2 µM | 28 µM | 21.7 µM | – | 19.5 µM | – | 27.2 µM | 44.3 µM | 49.2 µM | – | – | – |
| CSc1nc(NC2OCC(OC(C)=O)C(OC(C)=O)C2OC(C)=O)c2c(n1)OCC2=O (stereo not drawn) | > 100 µM | > 100 µM | > 100 µM | – | > 100 µM | – | > 100 µM | > 100 µM | – | – | – | – |
| Oc1ccc(C2Oc3cc(O)cc4c3C2c2cc(O)cc3c2C(c2cc(O)cc5c2C4C(c2ccc(O)cc2)O5)C(c2ccc(O)cc2)O3)cc1 (stereo not drawn) | > 25 µM | > 25 µM | > 25 µM | 24.5 µM | > 25 µM | – | > 25 µM | – | – | – | – | – |
| CC(C)(CCl)NC(=O)c1cccc(C(=O)NC(C)(C)CCl)n1 | > 100 µM | > 100 µM | > 100 µM | – | > 100 µM | > 100 µM | > 100 µM | > 100 µM | – | – | – | – |
| O=C(O[C@H]1[C@@H]2C=CO[C@@H](OC3OC(CO)C(O)C(O)C3O)[C@@H]2[C@@]2(CO)O[C@@H]12)c1ccc(O)c(O)c1 (stereo partly drawn) | > 100 µM | > 100 µM | > 100 µM | > 100 µM | – | – | > 100 µM | > 100 µM | – | – | – | – |
| CN1N=C2c3ccccc3OC(c3ccccc3)[C@H]2C1c1ccccc1 (stereo partly drawn) | > 100 µM | > 100 µM | > 100 µM | > 100 µM | > 100 µM | – | > 100 µM | > 100 µM | > 100 µM | – | – | – |
| O=c1c(C(c2ccc([N+](=O)[O-])cc2)c2c(O)c3ccccc3n(-c3ccccc3)c2=O)c(O)c2ccccc2n1-c1ccccc1 | > 100 µM | > 100 µM | 54.7 µM | 58.4 µM | 73.5 µM | 44.6 µM | > 100 µM | > 100 µM | 9.08 µM | – | – | – |
| CN/N=C(\C)C(CN1CCCCC1)C(C1=C(O)c2ccccc2OC1)c1ccccc1 (stereo not drawn) | > 100 µM | – | > 100 µM | > 100 µM | > 100 µM | > 100 µM | > 100 µM | > 100 µM | – | – | – | – |
| O=c1[nH]nc(CNc2ccc(Cl)cc2Cl)c2ccccc12 | 75.2 µM | 90.6 µM | 40.1 µM | – | 37.1 µM | > 100 µM | > 100 µM | > 100 µM | 54.4 µM | – | – | – |
| C=CCCCN1CCCCC1=S | > 100 µM | > 100 µM | – | > 100 µM | > 100 µM | > 100 µM | > 100 µM | – | > 100 µM | – | – | – |
| C#CC(C)(C)OCCCCOc1cc(O)c2c(=O)c3ccccc3n(C)c2c1 | > 100 µM | > 100 µM | > 100 µM | > 100 µM | > 100 µM | – | > 100 µM | > 100 µM | > 100 µM | – | – | – |
| O=[N+]([O-])c1cccc(C2=NN(c3ccccc3)C3c4ccccc4OCC23)c1 (stereo not drawn) | > 100 µM | > 100 µM | > 100 µM | > 100 µM | > 100 µM | > 100 µM | > 100 µM | > 100 µM | > 100 µM | – | – | – |
| O=C1NC(=S)NC(=O)C1=CC1CC1 | > 100 µM | > 100 µM | > 100 µM | > 100 µM | > 100 µM | – | > 100 µM | > 100 µM | > 100 µM | – | – | – |
| CN1c2c(nc(N)[nH]c2=O)NCC1CCNc1ccc(C(=O)NC(CCC(=O)O)C(=O)O)cc1 (stereo not drawn) | 2280 µM | 2350 µM | – | 2150 µM | 1770 µM | – | 778 µM | 2660 µM | 2950 µM | 651 µM | 1810 µM | 1410 µM |
| CCc1ccc(Cc2ccc(CC)c(NC(=O)C(=O)C3NC(=S)NC3=O)c2CC)c(CC)c1NC(=O)C(=O)C1NC(=S)NC1=O (stereo not drawn) | > 100 µM | > 100 µM | > 100 µM | – | – | > 100 µM | > 100 µM | > 100 µM | – | – | – | – |
| CSc1ccc2c(cc1=O)C(NC(=O)c1ccccc1)CCc1cc(O)c(O)c(O)c1-2 (stereo not drawn) | 3.62 µM | 32.7 µM | 60.8 µM | – | 79.7 µM | – | 65 µM | > 100 µM | > 100 µM | – | – | – |
| Cc1cccc(N=Cc2ccc(N(CCC#N)S(=O)(=O)c3ccccc3)cc2C)c1 | > 100 µM | > 100 µM | > 100 µM | > 100 µM | > 100 µM | > 100 µM | > 100 µM | – | – | – | – | – |
| N#Cc1ccccc1NC(=O)C(=O)C(C(=O)c1ccncc1)C1OC(=O)c2ccccc21 (stereo not drawn) | > 100 µM | > 100 µM | > 100 µM | > 100 µM | > 100 µM | > 100 µM | > 100 µM | > 100 µM | > 100 µM | – | – | – |
| CO/N=C(/C(=O)Nc1c[n+](CC(=O)[O-])cs1)c1csc(N)n1 | > 100 µM | > 100 µM | > 100 µM | > 100 µM | – | – | – | > 100 µM | > 100 µM | – | – | – |
| CC12C3CC4C5CC(C(C53)[C@@H]1NCc1ccccc1)C42 (stereo partly drawn) | > 100 µM | > 100 µM | > 100 µM | > 100 µM | > 100 µM | > 100 µM | – | > 100 µM | > 100 µM | – | – | – |
| CC(C)(C)OC(=O)N1CC(C)(C)N2C(=O)C3(CCCO3)C12 (stereo not drawn) | > 100 µM | > 100 µM | > 100 µM | – | > 100 µM | – | > 100 µM | > 100 µM | > 100 µM | – | – | – |
